Each block holds one compound with its values, some of them ahead of it.
Key:
Caco-2 = test: Growth of colon cancer cell lines on extracellular matrix (ECM), living cell count by trypan blue; type: cell-based, human; settings: for Reduction in Cell Growth: 48 hours
Description: (§1) Human colon cancer cell lines HT-29 or Caco-2 were seeded with a cell density of 1×10^4 cells/ml in 15 mm Petri dishes and cultivated in medium RPMI 1640+10% fetal calf serum (FCS) (HT-29) or, respectively, in MEM+10% FCS (Caco-2) at 37° C. under an atmosphere containing 5% CO2. The cells were left to grow for 1 to 2 days until reaching confluence. The dishes were then washed once with PBS, then incubated with PBS and 0.5% Triton X-100 for 30 minutes at room temperature on an agitator, and then washed 3 times with PBS. The previously described cell lines then were again seeded on the dishes with the ECM layers prepared in this way. The influence of the pectin hydrolysate on cell growth was determined by counting the cells. For this, the cells were again removed after 48 hours with trypsine/EDTA solution in HBBS (10 min) and were washed in PBS solution. Then the number of living cells was determined by staining with trypan blue solution (650 mg trypan blue in 400 ml 0.9% NaCl, 1:1 (v/v)) in a Neubauer counting chamber. As a control, experiments were performed with glucose.

HT-29 = test: as above; type: cell-based, human; settings: for Reduction in Cell Growth: 48 hours
Description: as §1

[1] = target: T1, galectin-3 on HT 29 colon cancer cells (Homo sapiens, UniProt P17931); test: Inhibition of anti-galectin-3 monoclonal antibody binding, immunofluorescence/flow cytometry
T1 construct: endogenous in cells; host or cells: HT-29 (HT 29) human colon cancer cells
Description: (§2) The expression of galectin-3 on colon cancer cells was determined with immunofluorescence/flow cytometry methods using an anti-galectin-3-specific monoclonal antibody (mouse-Ig) and a corresponding anti-mouse FITC-coupled secondary antibody.

[2] = target: T2, galectin-3 on Caco-2 colon cancer cells (Homo sapiens, UniProt P17931); test: as above
T2 construct: endogenous in cells; host or cells: Caco-2 human colon cancer cells
Description: as §2

Caco-2 cells = tested on: Caco-2 cells
Description: The test is based on the migration of cells through the pores of a nucleopore polycarbonate filter in a protein gel that contains several ECM proteins, such as, for example, type 1 and type III collagen, fibronectin, and laminin, to a nitrocellulose filter. […] As a control, the effect of glucose on the invasive capacity of Caco-2 cells was studied.

E. coli [3] = settings: from EP 0 716 605 B1; cited from earlier work
E. coli [4] = test: Prevention of adhesion of pathogenic germs to human uroepithelial cells; type: cell-based; settings: human uroepithelial cells pre-incubated 1, 2 or 3 hours, various concentrations
Description: (§3) For this test, human uroepithelian cells obtained by centrifugation from morning urine as well as two strains of staphylococcus aureus and E. coli were used, each as a suspension with 10^9 germs/mL.
(§4) Epithelial cells and germ suspension were incubated together at 37° C. for 30 minutes. The epithelial cells then were separated from the non-adherent germs by membrane filtration (8μ). The filters were washed several times, placed into normal saline, and the epithelial cells were suspended in it. After centrifugation of the suspension in saline, the pellet was applied to slides and stained according to May-Grünwald and Giemsa. The number of germs adhering to 50 epithelial cells were counted. This number represented the blank value. Epithelial cells to which no germ solution had been added were used as a control.
(§5) In the main test, epithelial first were incubated with aqueous solutions of various concentrations consisting of pectin hydrolysis products produced according to the invention (according to Example 1) for 1, 2 or 3 hours. They were then combined with the germ suspension and treated further as described above. The measuring value was obtained by counting the germs adhering to 50 epithelial cells.

staphylococcus aureus = test: as above; type: cell-based; settings: human uroepithelial cells pre-incubated 1, 2 or 3 hours, various concentrations
Description: as §3, §4, §5

[5] = Caco-2, in relation to the concentration used
[6] = HT 29, in relation to the concentration used

T1 sequence (P17931 whole entry): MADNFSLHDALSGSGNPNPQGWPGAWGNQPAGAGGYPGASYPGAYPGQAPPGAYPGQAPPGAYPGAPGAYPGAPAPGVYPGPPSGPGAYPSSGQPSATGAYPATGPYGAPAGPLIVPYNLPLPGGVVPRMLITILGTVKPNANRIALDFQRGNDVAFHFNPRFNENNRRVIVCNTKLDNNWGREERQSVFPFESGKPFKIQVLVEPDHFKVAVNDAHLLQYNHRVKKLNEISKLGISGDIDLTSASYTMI
T2 sequence (P17931 whole entry): as above

- Reduction of Binding Monoclonal Anti-Galectin-3 Antibody ([1]; HT 29, concentration 0.01%): 0
- Reduction of Binding Monoclonal Anti-Galectin-3 Antibody ([1]; HT 29, concentration 0.1%): 0
- Reduction of Binding Monoclonal Anti-Galectin-3 Antibody ([1]; HT 29, concentration 1.0%): 2
- reduction of the binding of the monoclonal anti-galectin-3 antibody (Table 3) [1, 6]: not at all or only slightly
- Reduction of Binding Monoclonal Anti-Galectin-3 Antibody ([2]; Caco-2, concentration 0.01%): 0
- Reduction of Binding Monoclonal Anti-Galectin-3 Antibody ([2]; Caco-2, concentration 0.1%): 0
- Reduction of Binding Monoclonal Anti-Galectin-3 Antibody ([2]; Caco-2, concentration 1.0%): 0
- reduction of the binding of the monoclonal anti-galectin-3 antibody (Table 3) [2, 5]: not at all or only slightly
- reduction of the invasive capacity of Caco-2 cells (text summary of Table 2) (Caco-2 cells): only caused a slight reduction
SMILES: O=C[C@H](O)[C@@H](O)[C@H](O)[C@H](O)CO [Glucose, glucose]
- Reduction in Cell Growth (Caco-2; Caco-2, concentration 0.01%): 0%
- Reduction in Cell Growth (Caco-2; Caco-2, concentration 0.1%): 0%
- Reduction in Cell Growth (Caco-2; Caco-2, concentration 1.0%): 0%
- reduced cell growth (text summary of Table 1) (Caco-2; [5]): no influence
- Reduction in Cell Growth (HT-29; HT 29, concentration 0.01%): 0%
- Reduction in Cell Growth (HT-29; HT 29, concentration 0.1%): 1%
- Reduction in Cell Growth (HT-29; HT 29, concentration 1.0%): 0%
- reduced cell growth (text summary of Table 1) (HT-29; [6]): no influence

SMILES: O=C(O)[C@H]1O[C@H](O[C@@H]2[C@H](O)[C@@H](O)[C@@H](O)O[C@@H]2C(=O)O)[C@H](O)[C@@H](O)[C@H]1O [digalacturonide]
- blocking of the adhesion (E. coli [3]): ≤ 91.7%

SMILES: OC[C@H]1O[C@H](O[C@]2(CO)O[C@H](CO[C@H]3O[C@H](CO)[C@@H](O)[C@H](O)[C@H]3O)[C@@H](O)[C@@H]2O)[C@H](O)[C@@H](O)[C@@H]1O [isomelezitose]
- blockage of germ adhesion to the epithelial cells (E. coli [4]): No reduction
- blockage of germ adhesion to the epithelial cells (staphylococcus aureus): No reduction

SMILES: O=C(O)[C@H]1OC(O)[C@H](O)[C@@H](O)[C@H]1O (some centres unmarked) [monogalacturonic acid]
- blocking of the adhesion (E. coli [3]): no blocking

SMILES: OC[C@H]1O[C@@](CO)(OC[C@@]2(OC[C@@]3(O[C@H]4O[C@H](CO)[C@@H](O)[C@H](O)[C@H]4O)O[C@H](CO)[C@@H](O)[C@@H]3O)O[C@H](CO)[C@@H](O)[C@@H]2O)[C@@H](O)[C@@H]1O [nystose]
- blockage of germ adhesion to the epithelial cells (E. coli [4]): No reduction
- blockage of germ adhesion to the epithelial cells (staphylococcus aureus): No reduction

SMILES: OC[C@H]1O[C@H](OC[C@H]2O[C@H](O[C@]3(CO)O[C@H](CO)[C@@H](O)[C@@H]3O)[C@H](O)[C@@H](O)[C@@H]2O)[C@H](O)[C@@H](O)[C@H]1O [raffinose]
- blockage of germ adhesion to the epithelial cells (E. coli [4]): No reduction
- blockage of germ adhesion to the epithelial cells (staphylococcus aureus): No reduction

SMILES: O=C(O)[C@H]1O[C@H](O[C@@H]2[C@H](O)[C@@H](O)[C@@H](O[C@@H]3[C@H](O)[C@@H](O)C(O)O[C@@H]3C(=O)O)O[C@@H]2C(=O)O)[C@H](O)[C@@H](O)[C@H]1O (some centres unmarked) [trigalacturonide]
- blocking of the adhesion (E. coli [3]): ≤ 84.6%

From US8435958B2, “Method for producing pectin hydrolysis products” (N.V. Nutricia, priority 2000, dated 2013)
